Where no end group is shown, it is not given here.
Tests used:
[1] = test system: Caspase 8; experiment: FLICE/Caspase-8 Fluorometric Protease Assay; assay type: cell-based, human; settings: 100 nM, 12 hours, MDA-MB-231 cells
Experimental: (§1) One million MDA-MB-231 cells were incubated with 100 nM of the OPN, LVVDPK (SEQ ID NO:8), Ac-MLDP (SEQ ID NO:23) or Ac-HKDKMLDP (SEQ ID NO:24) in DME containing 10% FBS in a humidified atmosphere of 5% CO2 at […]. After 12 hours, Caspase 8 and the % of apoptotic cells were determined. Caspase was determined by a fluorescent assay using Chemicon's FLICE/Caspase-8 Fluorometric Protease Assay Kit as described by the manufacturers. Apoptosis was determined using TUNEL using the “In situ Cell Death Detection Kit” (Boehringer-Mannheim, Germany).

[2] = test system: Peritoneal macrophages, fibroblasts or osteoblasts; experiment: Apoptosis of non-tumor cells treated with PepM; assay type: cell-based
[3] = test system: MDA-MB-231 cells (CD44+ human breast adenocarcinoma cells); experiment: Chemotactic chamber (Boyden) assay, migration through polycarbonate filters; assay type: cell-based; settings: for MI buffer: Table 4, cells migrating in response to peptide divided by cells migrating in response to buffer
Experimental: Each peak was then tested for mediation of chemotaxis or for its ability to inhibit OPN mediated chemotaxis using the chemotactic assay as follows (see e.g., Weber et al. (1996) Science 271:509-512). Briefly, uncoated polycarbonated filters (pore size […] ) were used to separate the upper and lower chambers of chemotactic wells. 1×10^3 MDA-MB-231 cells (CD44^+human breast adenocarcinoma cells) were added to the upper chamber and incubated in the presence or absence of the indicated 50 pmols peptide. After 4 hours, the filters were removed, fixed in methanol arid stained with hematoxylin and eosin. Cells which have responded to the peptide, migrate to various areas of the lower surface and can be counted microscopically. Each data point is reported as the mean number of migrating cells per random high power field.
Peptide 51 was identified as being chemotactic. The peptide was sequenced using a gas-phase sequenator and determined to have the sequence LVLDPK (SEQ ID NO:1). To confirm that chemotaxis was due to this peptide, a 16 amino acid peptide spanning the chemotactic sequence in OPN was synthesized and tested for its chemotactic properties. The resulting peptide, SP64 has the sequence KFHSHKDKLVLDPKSK (SEQ ID NO:2) and containing the chemotactic sequence from residues 9-14. 2×10^4 MDA-MB-231 cells were assayed for chemotactic response to the indicated peptides as described above. Each data point is reported as the mean number of migrating cells per six random high powered fields ± standard error of the mean. Each experiment was repeated four times.
To test the amino acid specificity for chemotactic response several substitutions were created in the chemotactic sequence and the new peptides tested for their ability to induce chemotaxis. Data are expressed as migratory index (cells migrating in response to peptide/cells migration in response to LVLDPK, SEQ ID NO:1).
(§2) To evaluate the potential of peptide analogues to inhibit OPN induced chemotaxis, 100 nmoles of peptide was added to the lower compartment and the response of these cells to OPN was determined as described. MI(buffer) was calculated by dividing the number of cells migrating in response to peptide by the number of cells migrating in response to buffer. MI(inhibitory) equals the number of cells migrating towards OPN in the presence of buffer divided by the number migrating towards OPN in the presence of peptide.

[4] = test system: MDA-MB-231 cells; experiment: Apoptosis by TUNEL (In situ Cell Death Detection Kit); assay type: cell-based, human; settings: 100 nM, 12 hours; for increase in apoptosis as compared to OPN: TUNEL
Experimental: as §1

[5] = test system: MDA-MB-231 cells; experiment: Inhibition of OPN induced chemotaxis in the chemotactic chamber assay; assay type: cell-based, human; settings: for MI inhibitory: Table 4, 100 nmoles of peptide, cells migrating towards OPN in presence of buffer divided by number migrating towards OPN in presence of peptide
Experimental: as §2

[6] = test system: breast tumor cells; experiment: Nitric oxide production, nitrate in culture supernatants (Griess reagents); assay type: cell-based; settings: 12 hours after incubation
Experimental: The production of nitric oxide (NO) by the breast tumor cells was assessed 12 hours after incubation in the presence of pepL by measuring the accumulation of nitrate in culture supernatants. Griess reagents were used as described by Hwang et al. (1993).

[7] = test system: cells recruited into the peritoneum; experiment: In vivo chemotaxis after injection of peptide into the peritoneal cavity, lavage and flow cytometry; parameters: species or system C57 black mice; settings: coinjected with the chemotactic agent
[8] = test system: macrophage; experiment: Inhibition of macrophage recruitment by osteopontin, C5a and fibronectin; settings: C5a and by fibrorectin

Substance	increase In Caspase 8 activity [1]	apoptosis of non-tumor cells [2]	MI buffer [3]	apoptosis (in words) [4]	increase in apoptosis as compared to OPN [4]	MI inhibitory [5]	NO production [6]	effect on chemotactic response to OPN of LVLDPK in vivo [7]	Migratory Index ([3]; Table 3, cells migrating in response to peptide/cells migration in response to LVLDPK)	inhibition of macrophage recruitment [8]	inhibition of chemotaxis by peptide (in words) ([5]; migratory index against peptide 51)
Acetyl-HKDKMLDP (Ac-HKDKMLDP) [pepM]	~80%	did not undergo apoptosis	0.8	activation of apoptosis	~120%	2	–	–	–	–	–
Acetyl-MLDP (Ac-MLDP) [pepL]	~65%	–	1	activation of apoptosis	80%	2	increased NO production	totally abolished the chemotactic response	–	–	–
VLEP (OTHER INFORMATION: Description of Artificial Sequence:Synthetic Peptide) [pepJ′]	–	–	–	–	–	–	–	–	0.1	inhibits macrophage recruitment	inhibitory for chemotaxis

From patent US6818621B2, “Osteopontin-derived chemotactic and inhibitory agents and uses therefor” (Children's Medical Center Corporation, priority 1999, dated 2004)
